From PubChem BioAssay (NCI)
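Cells were grown in 96-well plates and exposed to each compound for 48 hours at five concentrations; endpoints were interpolated linearly between bracketing concentrations, or set to the highest concentration if not reached. The concentration for 50% growth inhibition is given as GI50. TGI denotes the concentration required for complete inhibition of growth.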

What was measured:
Test in all cases: DTP human tumour cell line panel, 48 h
[1] = tested on: SK-MEL-2 melanoma
[2] = tested on: HOP-92 NSCLC
[3] = tested on: UO-31 renal
[4] = tested on: HCT-15 colon
[5] = tested on: CAKI-1 renal
[6] = tested on: SNB-19 CNS
[7] = tested on: OVCAR-3 ovarian
[8] = tested on: RPMI-8226 leukemia
[9] = tested on: SK-MEL-28 melanoma
[10] = tested on: EKVX NSCLC
[11] = tested on: MOLT-4 leukemia
[12] = tested on: CCRF-CEM leukemia

With `Nc1ccn(C2C=C(CO)C(O)C2O)c(=O)c1` (stereo not drawn) the TGI [1] was > 625 µM, the TGI [2] was > 625 µM and the TGI [3] was > 625 µM. For the same compound, the TGI [4] was > 625 µM, the TGI [5] was > 625 µM and the TGI [6] was > 625 µM. For the same compound, the TGI [7] was > 625 µM and the TGI [8] was > 625 µM.

In the case of `O=C(Nc1nc2ccc([N+](=O)[O-])cc2s1)C(=O)C(C(=O)c1ccccc1F)C1OC(=O)c2ccccc21` (stereo not drawn), the TGI [1] is reported as > 100 µM, the TGI [2] is reported as > 100 µM and the TGI [9] is reported as > 100 µM. The TGI [3] was > 100 µM, the TGI [10] was 73.4 µM and the TGI [11] was > 100 µM. The TGI [4] was > 100 µM, the TGI [5] was 98.5 µM and the TGI [6] was > 100 µM. For the same compound, the TGI [12] was 48.7 µM and the TGI [8] was 70.6 µM.

With `CCN(CC)c1ccc2cc(C(=O)Nc3ccc4[nH]c(C(=O)N5C[C@@H](CCl)c6c5cc(OC(=O)Nc5ccccc5)c5[nH]cc(C)c65)cc4c3)oc2c1` the GI50 [1] was > 1000 µM, the TGI [1] was > 1000 µM and the TGI [2] was > 1000 µM. For the same compound, the GI50 [9] was 401 µM, the TGI [9] was > 1000 µM and the TGI [3] was 982 µM. For the same compound, the GI50 [10] was 448 µM, the GI50 [11] was 294 µM and the TGI [11] was > 1000 µM. The GI50 [4] was 539 µM, the TGI [4] was > 1000 µM and the TGI [5] was 9.11e-05 µM. For the same compound, the TGI [6] was 758 µM, the GI50 [12] was 178 µM and the TGI [12] was > 1000 µM. For the same compound, the TGI [7] was > 1000 µM, the GI50 [8] was 681 µM and the TGI [8] was > 1000 µM.

In the case of `N#C[C@H](OC1OC(COC2OC(CO)C(O)C(O)C2O)C(O)C(O)C1O)c1ccccc1` (stereo partly drawn), the TGI [1] is reported as > 250 µM, the GI50 [2] is reported as > 250 µM and the TGI [2] is reported as > 250 µM. The TGI [9] was > 250 µM, the TGI [3] was > 250 µM and the TGI [10] was > 250 µM. The GI50 [11] was > 141 µM, the TGI [11] was > 141 µM and the TGI [4] was > 250 µM. For the same compound, the TGI [5] was > 250 µM, the TGI [6] was > 250 µM and the TGI [12] was > 250 µM. For the same compound, the TGI [7] was > 250 µM and the TGI [8] was > 250 µM.

For `O=c1ssc(=Nc2ccccc2)n1-c1ccccc1`, the TGI [1] was 53.9 µM, the TGI [2] was 98.5 µM and the TGI [9] was > 100 µM. For the same compound, the TGI [3] was 31.7 µM, the TGI [10] was > 100 µM and the TGI [11] was > 100 µM. For the same compound, the TGI [4] was 35 µM, the TGI [6] was > 100 µM and the TGI [12] was > 100 µM. It also gave a TGI [7] of 53.1 µM and a TGI [8] of 57.5 µM.

For `CCCCn1c(N)c(-c2nc3ccccc3o2)sc1=S`, the TGI [1] was 37.7 µM, the TGI [2] was > 100 µM and the TGI [9] was 52.7 µM. The TGI [3] was 39 µM, the TGI [10] was 81.8 µM and the TGI [11] was > 100 µM. For the same compound, the TGI [4] was 47.5 µM, the TGI [5] was 41 µM and the TGI [6] was > 100 µM. For the same compound, the TGI [12] was > 100 µM, the TGI [7] was 33.9 µM and the TGI [8] was 67.4 µM.

In the case of `Cn1c(=O)c2[nH]c(CCNC(=O)c3ccccc3)nc2n(C)c1=O`, the TGI [1] is reported as > 100 µM, the TGI [2] is reported as > 100 µM and the TGI [9] is reported as > 100 µM. The TGI [3] was > 100 µM, the TGI [10] was > 100 µM and the TGI [11] was > 100 µM. For the same compound, the TGI [4] was > 100 µM, the TGI [5] was > 100 µM and the TGI [6] was > 100 µM. For the same compound, the TGI [12] was > 100 µM and the TGI [7] was > 100 µM.

For `Cc1ccc(C2OC(COCc3ccc(Cl)cc3)C(OCc3ccc(Cl)cc3)C2O)cc1` (stereo not drawn), the TGI [1] was 31 µM, the TGI [2] was 15.6 µM and the TGI [9] was > 100 µM. The TGI [3] was 23.8 µM, the TGI [10] was 40 µM and the TGI [11] was > 100 µM. For the same compound, the TGI [4] was > 100 µM, the TGI [5] was 38.3 µM and the TGI [6] was 56.7 µM. It also gave a TGI [7] of 27.5 µM and a TGI [8] of 81.2 µM.

In the case of `C[N+](C)(C)CCc1ccccc1`, the TGI [1] is reported as > 100 µM, the TGI [2] is reported as > 100 µM and the TGI [9] is reported as > 100 µM. The TGI [3] was > 100 µM, the TGI [10] was > 100 µM and the TGI [11] was > 100 µM. For the same compound, the TGI [4] was > 100 µM, the TGI [5] was > 100 µM and the TGI [6] was > 100 µM. For the same compound, the TGI [12] was > 100 µM, the TGI [7] was > 100 µM and the TGI [8] was > 100 µM.

In the case of `Cc1cc(S(=O)(=O)Nc2nc3ccccc3nc2-c2cccc([N+](=O)[O-])c2)c(S)cc1Cl`, the TGI [1] is reported as 42.2 µM, the TGI [2] is reported as 46.5 µM and the TGI [9] is reported as 32.9 µM. The TGI [3] was 46.1 µM, the TGI [10] was 54.4 µM and the TGI [11] was 73.5 µM. The TGI [4] was > 100 µM, the TGI [5] was 39.4 µM and the TGI [6] was 39.9 µM. For the same compound, the TGI [12] was 75.7 µM, the TGI [7] was 30.6 µM and the TGI [8] was 64.7 µM.

For `O=C1OC2(CC1C1(O)C3CC4CC(C3)CC1C4)C1CC3CC(C1)CC2C3` (stereo not drawn), the TGI [1] was > 100 µM, the TGI [9] was > 100 µM and the TGI [3] was > 100 µM. For the same compound, the TGI [11] was > 100 µM, the TGI [4] was > 100 µM and the TGI [12] was > 100 µM. For the same compound, the TGI [7] was > 100 µM.

Work on `O=C1C(Cl)=C(Nc2ccc(S(=O)(=O)O)cc2)C(=O)c2ccccc21` yielded a TGI [1] of 59.6 µM, a TGI [2] of 34.6 µM and a TGI [9] of 83.2 µM. For the same compound, the TGI [3] was 29.2 µM, the TGI [10] was 52.5 µM and the TGI [11] was > 100 µM. For the same compound, the TGI [4] was > 100 µM, the TGI [5] was > 100 µM and the TGI [6] was > 100 µM. The TGI [12] was > 100 µM, the TGI [7] was 43.4 µM and the TGI [8] was 70.1 µM.

`COc1nc(=O)n(COC(CO)CN2C(=O)c3ccccc3C2=O)cc1Cc1cccc(OCc2ccccc2)c1` (stereo not drawn) showed a TGI [1] of 31.3 µM, a TGI [2] of 45.2 µM and a TGI [9] of 36.2 µM. The TGI [3] was 52.4 µM, the TGI [10] was > 100 µM and the TGI [11] was 49.4 µM. The TGI [4] was > 100 µM, the TGI [6] was > 100 µM and the TGI [12] was 60.2 µM. It also gave a TGI [7] of 58.9 µM and a TGI [8] of 42.3 µM.

For `CO/N=C(/C)c1ccc(NC(=O)CSc2nnc(-c3ccncc3)n2-c2ccccc2)cc1`, the GI50 [1] was 11.1 µM, the TGI [1] was 55.1 µM and the GI50 [2] was 2.32 µM. The TGI [2] was 6.07 µM, the GI50 [9] was > 100 µM and the TGI [9] was > 100 µM. The GI50 [11] was > 100 µM, the TGI [11] was > 100 µM and the GI50 [4] was > 100 µM. For the same compound, the TGI [4] was > 100 µM, the GI50 [12] was > 100 µM and the TGI [12] was > 100 µM. The GI50 [8] was > 100 µM and the TGI [8] was > 100 µM.

Work on `OCCNCCN1CCN(CCCN2c3ccccc3Sc3ccc(C(F)(F)F)cc32)CC1` yielded a TGI [1] of 37.5 µM, a TGI [9] of 39.5 µM and a TGI [10] of 52.3 µM. The TGI [11] was > 100 µM, the TGI [4] was 37.3 µM and the TGI [5] was > 100 µM. For the same compound, the TGI [6] was 49.2 µM, the TGI [12] was > 100 µM and the TGI [7] was 40.3 µM. The TGI [8] was > 100 µM.

`O=C1C=CC2(C=C1)O[C@H](Cc1ccccc1)[C@@H](Cc1ccccc1)O2` showed a TGI [1] of 3.33 µM, a TGI [2] of 2.71 µM and a TGI [9] of 1.71 µM. The TGI [3] was 0.69 µM, the TGI [10] was 1.76 µM and the TGI [11] was […]. The TGI [4] was 0.866 µM, the TGI [5] was 2.27 µM and the TGI [6] was 6.47 µM. It also gave a TGI [12] of 0.585 µM, a TGI [7] of 1.17 µM and a TGI [8] of 0.499 µM.

In the case of `C=CC1(NC(=O)c2ccccc2)CCC(C(C)(C)C)CC1` (stereo not drawn), the TGI [1] is reported as 56.6 µM, the TGI [9] is reported as > 100 µM and the TGI [3] is reported as 77.7 µM. The TGI [10] was > 83.2 µM, the TGI [11] was 30.3 µM and the TGI [4] was > 85 µM. For the same compound, the TGI [6] was > 100 µM, the TGI [12] was 72.1 µM and the TGI [7] was 86.7 µM. The TGI [8] was > 100 µM.

In the case of `CCCNC(=O)C(C)C1CCC2(C)C=CC(=O)C(C)=C2C1O` (stereo not drawn), the TGI [1] is reported as > 100 µM, the TGI [2] is reported as > 100 µM and the TGI [9] is reported as > 100 µM. For the same compound, the TGI [3] was > 100 µM, the TGI [10] was > 100 µM and the TGI [11] was > 100 µM. For the same compound, the TGI [4] was > 100 µM, the TGI [5] was > 100 µM and the TGI [6] was > 100 µM. The TGI [12] was > 100 µM, the TGI [7] was > 100 µM and the TGI [8] was > 100 µM.
